Assay results as given in patent US9303064B2, “Peptide inhibiting matrix metalloproteanases activity and use thereof” (CAREGEN CO., LTD., priority 2011, dated 2016).

Tested on: Hyaluronate lyase
Assay: Filler product injected into rat dorsal skin
Type: in vivo
Details: 1-7 days, FIG. 6e
Method: FIG. 6e represents effects on residence times of filler products when the filler product containing hyaluronate lyase and the peptide (SEQ ID NO:2) is injected to rat dorsal skin. The effects were determined at intervals of 1-7 days.
Hyaluronate lyase was artificially put into a commercial filler product at a concentration of 100 ug to induce degradation of hyaluronic acids, and then 200 ug peptides were treated. […] An assay using GPC column and an in vivo experiment using rats are performed. Control group was treated with hyaluronate lyase, and treatment group was co-treated hyaluronate lyase and each peptide. When the filler product was injected into rat skin, the degradation of hyaluronic acids inside the filler was inhibited by the treatment of peptides (FIG. 6e).

Which results are given for MIPCYISSP (CG-Seperin) [SEQ ID NO:2]?
degradation of hyaluronic acids inside the filler injected into rat skin (filler with hyaluronate lyase and peptide): hyaluronic acids degradation effect is excellent; residence times of filler products (versus only filler products): stayed for longer period
